Among the data in patent US20260042746A1, “2(1H)-PYRIDINIMINE DERATIVE” (SUMITOMO PHARMA CO., LTD., priority 2022, published 2026) are activity values, retold here.

The assay concerns α-synuclein aggregate. Description: Test 2: suppressing the accumulation of α-synuclein aggregate in neurospheroid from PLA2G6 mutant human iPS cells. The class given is cell-based. The following applies: compound added day 4, measured day 9, DMSO = 100%; for activity at 0.1 µM: 100 nM, read-out: Amount of aggregate (%) 100 nM; for activity at 1 µM: 1000 nM, read-out: Amount of aggregate (%) 1000 nM. Here is the method:
Test 2: Evaluation of Suppressing the Accumulation of α-Synuclein Aggregate with Neurospheroid Prepared from Human iPS Cells with a Mutation in PLA2G6 Gene
(1) Induction of Differentiation from Human iPS Cell to Neural Cell
Neural stem cells were induced from PLA2G6 gene mutant iPS cells with PSC Neuronal Induction Medium (Thermo Fisher Scientific Inc., cat #A1647801). Neurospheroid was prepared from the induced neural stem cells by three-dimensional culture system, and preserved with BrainPhys Neuronal Medium (STEMCELL Technologies, cat #ST-05793) comprising NeuroCult SM1 Neuronal Supplement, N2 Supplement-A, 20 ng/mL BDNF, 20 ng/mL GDNF, 1 mM dibutyryl cAMP, and 200 nM ascorbic acid. Half of the culture medium was replaced on day 2 and day 4 after the induction of differentiation.
The test compound was diluted with the culture medium so as to be twice the final concentration, and an equal volume of the twice-concentrated solution was added to each well when half of the culture medium was replaced on day 4 after induction of differentiation.
(2) Evaluation of the Amount of α-Synuclein Aggregate
From the neurospheroid 9 days after the induction of differentiation, proteins were extracted with a TBS solution containing 1% TritionX-100, and the extracted proteins were subjected to a protein analysis with Simple Western system (Protein Simple, Inc., cat #SM-W008) using an α-synuclein antibody (Thermo Fisher Scientific Inc., cat #AHB0261) to measure the amount of the α-synuclein aggregate.
Assuming that the amount of the aggregate in the neurospheroid added with a DMSO solution is 100%, the amount of the aggregate in the neurospheroid added with each test compound was evaluated.

For the compound `Cc1ccn(C)/c(=N/C(=O)C2(C)COC2)c1` [Example 4], the activity at 0.1 µM worked out at 10% and the activity at 1 µM was 120%.
Turning to `CCC1(C(=O)/N=c2\cc(C)ccn2C)COC1` [Example 5], the activity at 0.1 µM was 113% and the activity at 1 µM worked out at 91%.
Regarding `Cn1ccc(C(F)(F)F)c/c1=N\C(=O)C1(C)COC1` [Example 6], the activity at 0.1 µM turned out to be 38% and the activity at 1 µM turned out to be 26%.
`CCC1(C(=O)/N=c2\cc(C(F)(F)F)ccn2C)COC1` [Example 7]: the activity at 0.1 µM was 40% and the activity at 1 µM amounted to 66%.
On the same counts, the results for `COc1ccn(C)/c(=N/C(=O)C2(C)COC2)c1` [Example 8] are 58% and 61%.
For the compound `CCn1ccc(OC)c/c1=N\C(=O)C1(C)COC1` [Example 10], the activity at 0.1 µM stood at 25% and the activity at 1 µM was 8%.
For the compound `CCn1ccc(OC)c/c1=N\C(=O)C1(CC)COC1` [Example 11], the activity at 0.1 µM is 65% and the activity at 1 µM was 7%.
With `CCOc1ccn(C)/c(=N/C(=O)C2(C)COC2)c1` [Example 12], the activity at 0.1 µM turned out to be 19% and the activity at 1 µM came to 10%.
Turning to `CCOc1ccn(C)/c(=N/C(=O)C2(CC)COC2)c1` [Example 13], the activity at 0.1 µM came to 33% and the activity at 1 µM stood at 13%.
For `Cn1ccc(OC(F)(F)F)c/c1=N\C(=O)C1(C)COC1` [Example 14], the activity at 0.1 µM was determined as 21% and the activity at 1 µM was determined as 7%.
On the same counts, the results for `CCC1(C(=O)/N=c2\cc(OC(F)(F)F)ccn2C)COC1` [Example 15] are 2% and 120%.
On to `Cn1ccc(F)c/c1=N\C(=O)C1(C)COC1` [Example 16], for which the activity at 0.1 µM turned out to be 73% and the activity at 1 µM was found to be 62%.
`CCC1(C(=O)/N=c2\cc(F)ccn2C)COC1` [Example 17]: the activity at 0.1 µM was determined as 77% and the activity at 1 µM came to 7%.
Take `CCn1ccc(F)c/c1=N\C(=O)C1(C)COC1` [Example 18]: the activity at 0.1 µM was 30% and the activity at 1 µM amounted to 26%.
Consider `CCn1ccc(F)c/c1=N\C(=O)C1(CC)COC1` [Example 19], for which the activity at 0.1 µM worked out at 112% and the activity at 1 µM amounted to 19%.
In the case of `Cn1ccc(Cl)c/c1=N\C(=O)C1(C)COC1` [Example 20], the activity at 0.1 µM was determined as 16% and the activity at 1 µM worked out at 49%.
Taken in the same sequence, the figures for `CCC1(C(=O)/N=c2\cc(Cl)ccn2C)COC1` [Example 21] were 37% and 7%.
In the case of `CCn1ccc(Cl)c/c1=N\C(=O)C1(C)COC1` [Example 22], the activity at 0.1 µM is 28% and the activity at 1 µM stood at 48%.
Take `CCn1ccc(Cl)c/c1=N\C(=O)C1(CC)COC1` [Example 23]: the activity at 0.1 µM was 56% and the activity at 1 µM amounted to 11%.
On the same counts, the results for `Cc1cc/c(=N\C(=O)C2(C)COC2)n(C)c1` [Example 24] are 121% and 58%.
As for `CCC1(C(=O)/N=c2\ccc(C)cn2C)COC1` [Example 25], the activity at 0.1 µM turned out to be 73% and the activity at 1 µM was 21%.
On the same counts, the results for `Cn1cc(C(F)(F)F)cc/c1=N\C(=O)C1(C)COC1` [Example 26] are 23% and 38%.
In the case of `CCC1(C(=O)/N=c2\ccc(C(F)(F)F)cn2C)COC1` [Example 27], the activity at 0.1 µM stood at 19% and the activity at 1 µM is 28%.
For `COc1cc/c(=N\C(=O)C2(C)COC2)n(C)c1` [Example 28], the activity at 0.1 µM worked out at 47% and the activity at 1 µM is 98%.
For `CCC1(C(=O)/N=c2\ccc(OC)cn2C)COC1` [Example 29], the activity at 0.1 µM was found to be 89% and the activity at 1 µM was found to be 33%.
Turning to `Cn1cc(F)cc/c1=N\C(=O)C1(C)COC1` [Example 30], the activity at 0.1 µM came to 50% and the activity at 1 µM was determined as 59%.
For `Cn1cc(Cl)cc/c1=N\C(=O)C1(C)COC1` [Example 32], the activity at 0.1 µM turned out to be 33% and the activity at 1 µM was 31%.
Consider `CCC1(C(=O)/N=c2\ccc(Cl)cn2C)COC1` [Example 33], for which the activity at 0.1 µM was found to be 33% and the activity at 1 µM amounted to 50%.
Take `Cc1c/c(=N\C(=O)C2(C)COC2)n(C)cc1C` [Example 34]: the activity at 0.1 µM is 18% and the activity at 1 µM turned out to be 85%.
Turning to `CCC1(C(=O)/N=c2\cc(C)c(C)cn2C)COC1` [Example 35], the activity at 0.1 µM is 95% and the activity at 1 µM stood at 97%.
Consider `Cc1c/c(=N\C(=O)C2(C)COC2)n(C)cc1F` [Example 36], for which the activity at 0.1 µM worked out at 13% and the activity at 1 µM was determined as 16%.
Regarding `CCC1(C(=O)/N=c2\cc(C)c(F)cn2C)COC1` [Example 37], the activity at 0.1 µM is 29% and the activity at 1 µM was determined as 53%.
On the same counts, the results for `Cc1c/c(=N\C(=O)C2(C)COC2)n(C)cc1Br` [Example 38] are 21% and 33%.
On to `CCC1(C(=O)/N=c2\cc(C)c(Br)cn2C)COC1` [Example 39], for which the activity at 0.1 µM is 15% and the activity at 1 µM worked out at 94%.
For the compound `CCC1(C(=O)/N=c2\cc(OC)c(Cl)cn2C)COC1` [Example 41], the activity at 0.1 µM worked out at 18% and the activity at 1 µM amounted to 45%.
Turning to `Cn1cccc/c1=N\C(=O)C1CCN(CC(F)(F)F)CC1` [Example 42], the activity at 0.1 µM was determined as 82% and the activity at 1 µM stood at 96%.
`Cn1cccc/c1=N\C(=O)C1(C)CNC1` [Example 43, 3-Methyl-N-[(2E)-1-methylpyridin-2(1H)-ylidene]azetidine-3-carboxamide]: the activity at 0.1 µM was 49% and the activity at 1 µM stood at 57%.
On the same counts, the results for `COc1ccn(C)/c(=N/C(=O)C2(C)CNC2)c1` [Example 44] are 23% and 10%.
With `CCn1ccc(OC)c/c1=N\C(=O)C1(C)CNC1` [Example 45], the activity at 0.1 µM is 25% and the activity at 1 µM is 35%.
Taken in the same sequence, the figures for `Cn1cc(F)cc/c1=N\C(=O)C1(C)CNC1` [Example 46] were 85% and 49%.
Consider `Cc1cc/c(=N\C(=O)C2(C)CNC2)n(C)c1` [Example 47], for which the activity at 0.1 µM was 25% and the activity at 1 µM was determined as 40%.
For the compound `Cn1cc(C(F)(F)F)cc/c1=N\C(=O)C1(C)CNC1` [Example 48], the activity at 0.1 µM is 63% and the activity at 1 µM is 68%.
For `CN1CC(C)(C(=O)/N=c2\ccccn2C)C1` [Example 49, 1,3-Dimethyl-N-[(2E)-1-methylpyridin-2(1H)-ylidene]azetidine-3-carboxamide], the activity at 0.1 µM came out at 78% and the activity at 1 µM is 74%.
For the compound `CCn1ccc(OC)c/c1=N\C(=O)C1(C)CN(C)C1` [Example 52], the activity at 0.1 µM amounted to 68% and the activity at 1 µM turned out to be 60%.
Taken in the same sequence, the figures for `CCOc1ccn(C)/c(=N/C(=O)C2(C)CN(C)C2)c1` [Example 53] were 16% and 92%.
On the same counts, the results for `CN1CC(C)(C(=O)/N=c2\cc(OC(F)(F)F)ccn2C)C1` [Example 54] are 18% and 13%.
For the compound `Cc1cc/c(=N\C(=O)C2(C)CN(C)C2)n(C)c1` [Example 55], the activity at 0.1 µM came to 92% and the activity at 1 µM was 74%.
Take `CN1CC(C)(C(=O)/N=c2\ccc(F)cn2C)C1` [Example 56]: the activity at 0.1 µM worked out at 30% and the activity at 1 µM was found to be 68%.
Take `Cc1c/c(=N\C(=O)C2(C)CN(C)C2)n(C)cc1C` [Example 57]: the activity at 0.1 µM stood at 13% and the activity at 1 µM turned out to be 31%.
As to `Cc1c/c(=N\C(=O)C2(C)CN(C)C2)n(C)cc1F` [Example 58], the activity at 0.1 µM is 36% and the activity at 1 µM stood at 17%.
With `Cc1c/c(=N\C(=O)C2(C)CN(C)C2)n(C)cc1Br` [Example 59], the activity at 0.1 µM came to 6% and the activity at 1 µM was found to be 4%.
Taken in the same sequence, the figures for `Cn1cccc/c1=N\C(=O)N1CCOCC1` [Example 61, N-[(2E)-1-methylpyridin-2(1H)-ylidene]morpholine-4-carboxamide] were 73% and 53%.
Taken in the same sequence, the figures for `Cn1cccc/c1=N\C(=O)C1CCCO1` (stereo not shown) [Example 62] were 76% and 79%.
On to `Cn1cccc/c1=N\C(=O)C1CCOC(C)(C)C1` (stereo not shown) [Example 64], for which the activity at 0.1 µM came to 69% and the activity at 1 µM is 72%.
Taken in the same sequence, the figures for `CN1CCC(C(=O)/N=c2\ccccn2C)CC1` [Example 65] were 86% and 67%.
On to `Cn1cccc/c1=N\C(=O)C1CNC1` [Example 66], for which the activity at 0.1 µM was found to be 61% and the activity at 1 µM turned out to be 66%.
